For assay [1], the target named is T1, Mutant NTD (all five histidine residues in the HP repeats mutated to alanine) (Homo sapiens, UniProt Q9UPI3, H30A/H36A/H48A/H54A/H66A).
T1 construct: Plasmid harboring GST-His-tag-SUMO-NTD (amino acids 1-84); GST-His-tag-SUMO (N, cleaved yes); made in house; host or cells: Escherichia coli
Nature of the assay: Heme absorbance-shift assay with mutant NTD. The assay is classed as binding.

The target of assay [2] is T2, MFSD7C interactions with ETC components (CYC1, NDUFA4, COX4i1, ATP5h, ATP5c1) (Mus musculus, UniProt Q91X85).
T2 construct: expressed in transfected cells; host or cells: 293FT cells
T2 sequence (Q91X85 whole entry): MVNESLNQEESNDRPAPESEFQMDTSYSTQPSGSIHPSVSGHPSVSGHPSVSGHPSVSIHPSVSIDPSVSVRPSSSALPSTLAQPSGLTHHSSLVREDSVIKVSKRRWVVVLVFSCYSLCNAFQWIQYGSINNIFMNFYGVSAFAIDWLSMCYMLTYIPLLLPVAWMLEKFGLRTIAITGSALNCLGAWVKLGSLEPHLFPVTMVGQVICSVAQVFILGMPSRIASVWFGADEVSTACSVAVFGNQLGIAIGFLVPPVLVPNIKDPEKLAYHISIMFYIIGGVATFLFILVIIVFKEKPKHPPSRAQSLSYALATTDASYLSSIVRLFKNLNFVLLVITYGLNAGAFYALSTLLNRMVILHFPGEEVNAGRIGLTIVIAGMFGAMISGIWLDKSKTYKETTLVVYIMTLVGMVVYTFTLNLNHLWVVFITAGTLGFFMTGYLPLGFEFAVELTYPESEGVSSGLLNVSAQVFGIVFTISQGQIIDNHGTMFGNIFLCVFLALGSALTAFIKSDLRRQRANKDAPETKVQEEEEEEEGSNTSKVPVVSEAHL
Nature of the assay: Co-IP of HA-tagged MFSD7C with FLAG-tagged ETC components in transfected 293FT cells. To be noted: 10 μM or 40 μM heme for one hour before cell lysis, increasing level. The format is cell-based, murine. As for the experimental part:
Co-transfection and immunoprecipitation. For co-IP, HA-tagged MFSD7C was co-transfected with FLAG-tagged HMOX1 (Origene Catalog No. MR203944), CYC1, COX4I1, NDUFA4, ATP5h, ATP5c1 into 293FT cells using TransIT®-LT1 Transfection Reagent (Mirus). Thirty-six hours after transfection, the cells were lysed using cold Lysis Buffer containing 20 mM Tris-HCl (pH 7.4), 150 mM NaCl, 0.1% NP-40, 10% glycerol, proteinase inhibitor (Sigma Catalog No. 4693132001), and phosphatase inhibitors (Sigma Catalog No. 4906845001). The clear supernatants from the lysate were incubated with M2-magnetic beads conjugated with anti-FLAG antibody (Sigma Catalog No. M8823) for 2 hours at 4° C. Then the beads were washed twice and eluted by the 3× FLAG peptides (Sigma Catalog No. F4799).
To determine the effect of heme on MFSD7C interactions with ETC components, HMOX1 or SERCA2b, 293FT cells were transiently transfected with HA-tagged murine MFSD7C and FLAG-tagged murine CYC1, NDUFA4, COX4i1, ATP5h, ATP5c1, HMOX1 or SERCA2b. 35 hrs later, co-transfected cells were incubated with DMSO (vehicle) or 10 μM or 40 μM of heme for one hour before lysis. Cell lysates were precipitated with anti-HA antibody, eluted with HA peptide, further precipitated with anti-FLAG antibody, eluted with FLAG peptide, and then subjected to Western blotting with anti-HA and anti-FLAG antibodies. […]

Assay [3] deals with 4B8^FL cells. Nature of the assay: FPT intensity in 4B8 cells complemented with full length MFSD7C. To be noted: 40 μM heme 1 hour. The format is cell-based, human. As for the experimental part:
FIGS. 4A-4H show NTD of MFSD7C mediates heme effect on mitochondrial respiration. FIGS. 4A-4C show comparison of basal OCR (FIG. 4A), maximal OCR (FIG. 4B) and ECAR (FIG. 4C) of THP-1, 4B8, and 4B8^FL and 4B8^ΔN cells treated with vehicle or heme for 1 hour (n=18 separate experiments). […] Cells were incubated with FPT for 6 hrs, washed and reseeded in poly-lysine coated glass bottom dishes. After cells attached to the glass, medium containing 40 μM heme was added. Cells in the same field were imaged immediately and again 1 hour later. Relative FPT fluorescent intensities, normalized to THP-1, from three experiments are shown. (n=3 independent experiments). […] THP-1 cells were co-cultured with 4B8, 4B8^FL, or 4B8^ΔN in FPT solution for 6 hrs, washed and reseeded in poly-lysine coated glass bottom dishes. […] THP-1, 4B8, 4B8^FL and 4B8^ΔN cells were treated with vehicle or heme for 1 hour and MMP was measured by using JC-10 Mitochondrial Membrane Potential Assay Kit followed by flow cytometry. […] Shown are representative Western blotting data (FIG. 4G) and quantification of band intensities from n=3 independent experiments (FIG. 4H). P-values were calculated using two-way ANOVA (*p<0.05, **p<0.01, ***p<0.005). […]
In the second approach, we used fluorescent polymeric thermometer (FPT), which we synthesized in-house (see above). […] Then the fluorescence intensities were determined by a flow cytometer.

Assay [4] relates to SERCA2b. Nature of the assay: SERCA2b protein level by Western blotting, THP-1 cells. To be noted: THP-1 cells following heme treatment vs parental THP-1 cells. The assay is classed as cell-based, human. On the procedure: FIGS. 5A-5F show MFSD7C and heme regulate thermogenesis through SERCA2b in THP-1 cells. […] 30 hours later, MG132 was added into half of the cells and the other half was not treated. Another 35 hours later, some cells were treated with 40 μM heme for 1 hour before lysis. Cell lysates were immunoprecipitated with anti-FLAG antibody, and eluted, followed by anti-HA immunoprecipitation and elution. Total cell lysate and elute were subjected to Western blotting and probed with anti-SERCA2b or anti-MFSD7C antibodies. Shown are representative data from one of three experiments. […] 24 hrs later, cells were either not treated or treated with 10 μM MG132 for either 6 or 12 hours. The cells were lysed and subjected to FLAG pull-down and blotted with anti-MFSD7C, anti-SERCA2b and anti-ubiquitin antibodies. Shown are representative data from one of three experiments. […] Parental THP-1 cells were either not treated or treated with heme before lysis. Shown are representative data from one of four experiments. […] Shown are representative data from one of two experiments. […] Cells were washed and treated with 40 μM heme for one hour before flow cytometry. Representative FPT histograms from one of three experiments are shown. […] Shown are representative FPT histograms from one of three experiments.
Endogenous protein extraction. […]
A general note: In western blotting, separated proteins are transferred to a membrane and probed.

T1 sequence (Q9UPI3 1-84 H30A/H36A/H48A/H54A/H66A): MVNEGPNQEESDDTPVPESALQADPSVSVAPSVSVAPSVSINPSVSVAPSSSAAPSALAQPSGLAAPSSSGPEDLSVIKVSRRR

As to `C=CC1=C(C)c2cc3[n-]c(cc4[n-]c(cc5nc(cc1n2)C(C)=C5C=C)c(C)c4CCC(=O)O)c(CCC(=O)O)c3C.[Fe+2]` [heme], the “absorbance shift of heme” value in assay [1] is reported as “abolished”. In addition, the “ETC components co-precipitated with MFSD7C” value in assay [2] is given as “less or very little ETC components co-precipitated with MFSD7C”. Besides, the FPT intensity entry in assay [3] is recorded as “increased”. Moreover, the SERCA2b level entry in assay [4] is “significantly higher”.
